Results reported in patent US6573236B2, “Inhibiting MOG-antibody binding” (The Regents of the University of California, priority 1998, dated 2003).
Ends that are not written are not given here.

Tests used:
[1] = test system: antigen-specific autoantibody in situ (marmoset EAE lesions); experiment: Immunogold-labeled peptide staining of marmoset EAE CNS tissue sections; type: binding, C. jacchus marmoset; conditions: conjugates 1:100, silver enhancement
Protocol: Immunogold labeling was performed on ultra-thin sections of frozen or fixed tissues. Gold conjugates were prepared of (1) three MOG peptides (amino acids [aa] 1-20, aa 21-40, and aa 41-60 of human MOG (SEQ ID NO:3)) with known encephalitogenic activity in marmosets; (2) one MOG peptide that has been shown not to be encephalitogenic in marmosets (aa 101-120); (3) one human myelin basic protein (MBP) peptide (aa 82-101) that is encephalitogenic in marmosets and immunodominant in humans with the DR2 haplotype; and, as a control, (4) a peptide of mouse serum albumin (MSA; aa 560-574). Peptides having human MOG subsequences were synthesized using standard Fmoc chemistry and purified (>95%) by HPLC (Research Genetics Inc., Huntsville, Ala.): MOG 1-20, MOG 21-40, […], MBP 82-101, and MSA 560-574. The gold conjugates were synthesized by using monosulfo-N-hydroxy succinimide-Nanogold labeling reagent (particle diameter, 1.4 nm), according to the manufacturer's instructions (Nanoprobes, Stonybrook, N.Y.), followed by extensive dialysis to remove unreacted peptide. Immunoreactivity was detected on 1-μm epoxy sections of marmoset spinal cord tissue and active MS lesions. For this, sections were etched with sodium ethoxide, equilibrated in PO4-buffered saline containing 0.05% Triton X-100, and blocked with 10% normal rabbit serum. Sections were incubated with peptide-immunogold conjugates (1:100 in buffer) for 2 hours at room temperature. After washing, detection was performed by using silver enhancement (Nanoprobes). Sections were counterstained with toluidine blue. […]
(§1) As controls, sections were either pretreated with unlabeled encephalitogenic MOG peptides or MBP to block the reaction, reacted with unlabeled nonencephalitogenic MOG peptide (aa 101-120) before application of the gold conjugates, or treated with gold-labeled irrelevant antigens (histone or MSA) or irrelevant IgG (anti-goat). The specificity of the labeling with the gold conjugates of encephalitogenic MOG peptides was also assessed in western blots where the MOG protein was first reacted with immune marmoset serum. […]

[2] = test system: MOG- and MBP-specific autoantibodies in MS lesions; experiment: Immunogold-labeled peptide staining of human MS CNS tissue; type: binding; conditions: acute human MS lesions
Protocol: Immunogold labeling was performed on ultra-thin sections of frozen or fixed tissues. Gold conjugates were prepared of (1) three MOG peptides (amino acids [aa] 1-20, aa 21-40, and aa 41-60 of human MOG (SEQ ID NO:3)) with known encephalitogenic activity in marmosets; (2) one MOG peptide that has been shown not to be encephalitogenic in marmosets (aa 101-120); (3) one human myelin basic protein (MBP) peptide (aa 82-101) that is encephalitogenic in marmosets and immunodominant in humans with the DR2 haplotype; and, as a control, (4) a peptide of mouse serum albumin (MSA; aa 560-574). […] Immunoreactivity was detected on 1-μm epoxy sections of marmoset spinal cord tissue and active MS lesions. […]
as §1

Row | Substance | labeling of vesiculated myelin networks by gold conjugate [1] | staining of vesiculated myelin networks by gold conjugate [2]
1 | gold-conjugated MOG peptide (aa 21-40): Nanogold conjugate of human MOG peptide aa 21-40 (ELPCRISPGKNATGMEVGWY; also: Nanogold conjugate, attachment not given here) | Positive reactivity | –
2 | MSA, aa 560-574: Nanogold conjugate of control peptide of mouse serum albumin aa 560-574 (KPKATAEQLKTVMDD; also: Nanogold conjugate, attachment not given here) | failed to label | not
3 | MBP (aa 82-101): Nanogold conjugate of human myelin basic protein peptide aa 82-101 (PADPGSRPHLIRLFSRDAPG; also: Nanogold conjugate, attachment not given here) | failed to label | to a lesser extent
